Measurements taken from patent US8378102B2, “Oxime and hydroxylamine substituted thiazolo[4,5-c] ring compounds and methods” (3M Innovative Properties Company, priority 2005, dated 2013).

Structure (SMILES)	melting point
CON=Cc1nc2c(N)nc3cc(-c4cccc(NS(C)(=O)=O)c4)ccc3c2s1 [Example 139, N-{3-[4-Amino-2-(methoxyimino-methyl)-thiazolo[4,5-c]quinolin-7-yl]-phenyl}-methanesulfonamide]	254 to 256 °C
CC(C)=NOCc1nc2c(N)nc3ccccc3c2s1 [Example 1, Acetone O-[(4-amino[1,3]thiazolo[4,5-c]quinolin-2-yl)methyl]oxime]	152 to 153 °C

The next lines start with the values.

melting point	Structure (SMILES)
262 to 264 °C	CON=Cc1nc2c(N)nc3cc(Br)ccc3c2s1 [Example 3, 4-Amino-7-bromo[1,3]thiazolo[4,5-c]quinoline-2-carbaldehyde O-methyloxime]
211 to 213 °C	CC(C)=NOCc1nc2c(N)nc3cc(Br)ccc3c2s1 [Example 2, Acetone O-(4-amino-7-bromo[1,3]thiazolo[4,5-c]quinolin-2-ylmethyl)oxime]
259 to 261 °C	CON=Cc1nc2c(N)nc3cc(-c4ccccc4)ccc3c2s1 [Example 138, 4-Amino-7-phenyl-thiazolo[4,5-c]quinoline-2-carbaldehyde O-methyl-oxime]
